Target: T1, c-kit kinase (Homo sapiens, UniProt P10721)
T1 construct: The c-kit (or kinase domain thereof) is an active kinase in AlphaScreen; poly-Histidine tag (in-house protein only) (cleaved yes); host or cells: E. coli BL21(DE3)RIL, co-expressed with PTP1B
Assay: c-Kit biochemical assay, AlphaScreen, 10 μM ATP
Conditions: c-kit biochemical inhibitory activity; read-out: Biochemical activity (IC50 μM) Kit
Method: IC50 values are determined with respect to inhibition of c-Kit kinase activity, where inhibition of phosphorylation of a peptide substrate is measured as a function of compound concentration. Compounds to be tested were dissolved in DMSO to a concentration of 20 mM. These were diluted 30 μl into 120 μl of DMSO (4 mM) and 1 μl was added to an assay plate. These were then serially diluted 1:3 (50 μl to 100 μl DMSO) for a total of 8 points. Plates were prepared such that each kinase reaction is 20 μl in 1× kinase buffer (50 mM HEPES, pH 7.2, 5 mM MgCl2, 5 mM MnCl2, 0.01% NP-40, 0.2% BSA), 5% DMSO and 10 μM ATP. […] C-kit kinase was at 0.1 ng per sample. After incubation of the kinase reaction for 1 hour at room temperature, 5 μl of donor beads (Streptavidin coated beads (Perkin Elmer Life Science) final concentration 1 μg/ml) in stop buffer (50 mM EDTA in 1× kinase buffer) was added, the sample was mixed and incubated for 20 minutes at room temperature before adding 5 μl of acceptor beads (PY20 coated beads (Perkin Elmer Life Science) final concentration 1 μg/ml) in stop buffer. The samples were incubated for 60 minutes at room temperature and the signal per well was read on AlphaQuest reader. […] The signal vs. compound concentration was used to determine the IC50.
Complementary DNA cloned from various human tissues were purchased from Invitrogen, and these were used as substrates in the PCR reactions. Specific custom synthetic oligonucleotide primers were designed to initiate the PCR product, and also to provide the appropriate restriction enzyme cleavage sites for ligation with the plasmids. The entire sequence encoding the enzyme was made through a gene synthesis procedure, using custom synthetic oligonucleotides covering the entire coding sequence (Invitrogen, see below).
The plasmid used for ligation with the kinase-encoding inserts was derivative of pET (Novagen) for expression using E. coli. The Kit kinase was engineered to include a Histidine tag for purification using metal affinity chromatography. The kinase-encoding plasmid was engineered as bicistronic mRNA to co-express a second protein that modifies the kinase protein during its expression in the host cell. Protein tyrosine phosphatase 1B (PTP), was co-expressed for dephosphorylation of the phospho-Tyrosines.
For protein expression, the plasmid containing the Kit gene was transformed into E. coli strains BL21(DE3)RIL and transformants selected for growth on LB agar plates containing appropriate antibiotics. Single colonies were grown overnight at 37° C. in 200 ml TB (Terrific broth) media. 16×1 L of fresh TB media in 2.8 L flasks were inoculated with 10 ml of overnight culture and grown with constant shaking at 37° C. Once cultures reached an absorbance of 1.0 at 600 nm, IPTG was added and cultures were allowed to grow for a further 12 to 18 hrs at temperatures ranging from 12-30° C. Cells were harvested by centrifugation and pellets frozen at […] until ready for lysis.
For protein Purification; frozen E. coli cell pellets were resuspended in lysis buffer and lysed using standard mechanical methods. Protein was purified via poly-Histidine tags using immobilized metal affinity purification IMAC. The Kit kinase was purified using a 3 step purification process utilizing; IMAC, size exclusion chromatography and ion exchange chromatography. The poly-Histidine tag was removed using Thrombin (Calbiochem).

T1 sequence (P10721 26-976): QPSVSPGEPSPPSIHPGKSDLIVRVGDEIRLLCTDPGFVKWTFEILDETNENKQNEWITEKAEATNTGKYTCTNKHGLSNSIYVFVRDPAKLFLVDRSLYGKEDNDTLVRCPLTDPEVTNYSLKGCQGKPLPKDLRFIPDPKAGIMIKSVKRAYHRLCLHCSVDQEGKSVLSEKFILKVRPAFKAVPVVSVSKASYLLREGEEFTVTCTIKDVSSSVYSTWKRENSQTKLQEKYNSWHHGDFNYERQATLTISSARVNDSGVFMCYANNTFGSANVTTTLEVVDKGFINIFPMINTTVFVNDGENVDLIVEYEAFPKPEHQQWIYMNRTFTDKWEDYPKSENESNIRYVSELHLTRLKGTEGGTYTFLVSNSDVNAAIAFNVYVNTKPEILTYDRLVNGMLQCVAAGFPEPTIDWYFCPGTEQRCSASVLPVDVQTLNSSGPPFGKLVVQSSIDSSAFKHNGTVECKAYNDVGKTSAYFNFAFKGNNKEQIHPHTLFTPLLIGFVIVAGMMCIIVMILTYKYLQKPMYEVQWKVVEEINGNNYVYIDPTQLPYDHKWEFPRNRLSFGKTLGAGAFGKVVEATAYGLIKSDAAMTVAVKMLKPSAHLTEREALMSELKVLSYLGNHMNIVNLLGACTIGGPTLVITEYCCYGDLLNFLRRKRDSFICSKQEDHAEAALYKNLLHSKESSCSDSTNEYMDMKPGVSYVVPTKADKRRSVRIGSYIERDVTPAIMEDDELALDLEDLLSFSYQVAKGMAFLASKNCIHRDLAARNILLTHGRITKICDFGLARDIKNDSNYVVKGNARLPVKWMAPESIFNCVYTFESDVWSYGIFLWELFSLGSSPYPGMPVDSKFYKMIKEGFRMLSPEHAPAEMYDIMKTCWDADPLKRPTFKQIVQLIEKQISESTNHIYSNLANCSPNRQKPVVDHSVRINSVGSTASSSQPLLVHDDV

SMILES	IC50 [µM]
O=C(NC1CCCCC1)N1CCN(c2ncnc3[nH]ccc23)CC1 [P-0204, N-cyclohexyl-4-(7H-pyrrolo[2,3-d]pyrimidin-4-yl)piperazine-1-carboxamide]	10 to 200
O=C(Nc1ccccc1)N1CCN(c2ncnc3[nH]ccc23)CC1 [P-0205, N-phenyl-4-(7H-pyrrolo[2,3-d]pyrimidin-4-yl)piperazine-1-carboxamide]	10 to 200
Cc1ccccc1C(=O)c1c[nH]c2ncnc(N3CCN(c4cc(NC5CC5)ncn4)CC3)c12 [P-0206, [4-[4-[6-(cyclopropylamino)pyrimidin-4-yl]piperazin-1-yl]-7H-pyrrolo[2,3-d]pyrimidin-5-yl]-(o-tolyl)methanone]	10 to 200
O=C(c1ccc(Cl)cc1)c1cc2c(N3CCN(C(=O)NCc4ccc(F)cc4)CC3)ncnc2[nH]1 [P-0207, 4-[6-(4-chlorobenzoyl)-7H-pyrrolo[2,3-d]pyrimidin-4-yl]-N-[(4-fluorophenyl)methyl]piperazine-1-carboxamide]	10 to 200
O=C(c1cc2c(N3CCN(C(=O)NCc4ccc(F)cc4)CC3)ncnc2[nH]1)C1CC1 [P-0209, 4-[6-(cyclopropanecarbonyl)-7H-pyrrolo[2,3-d]pyrimidin-4-yl]-N-[(4-fluorophenyl)methyl]piperazine-1-carboxamide]	1 to 10
O=C(NCc1ccc(F)cc1)N1CCN(c2ncnc3[nH]c(CC4CC4)cc23)CC1 [P-0210, 4-[6-(cyclopropylmethyl)-7H-pyrrolo[2,3-d]pyrimidin-4-yl]-N-[(4-fluorophenyl)methyl]piperazine-1-carboxamide]	10 to 200
COc1cc(NC(=O)N2CCN(c3ncnc4[nH]cc(-c5ccccc5)c34)CC2)cc(OC)c1 [P-0216, N-(3,5-dimethoxyphenyl)-4-(5-phenyl-7H-pyrrolo[2,3-d]pyrimidin-4-yl)piperazine-1-carboxamide]	10 to 200
COc1ccc(NC(=O)N2CCN(c3ncnc4[nH]c(-c5ccccc5)cc34)CC2)cc1 [P-0240, N-(4-methoxyphenyl)-4-(6-phenyl-7H-pyrrolo[2,3-d]pyrimidin-4-yl)piperazine-1-carboxamide]	10 to 200
COc1ccc(NC(=O)N2CCN(c3ncnc4[nH]c(I)cc34)CC2)cc1 [P-0244, 4-(6-iodo-7H-pyrrolo[2,3-d]pyrimidin-4-yl)-N-(4-methoxyphenyl)piperazine-1-carboxamide]	1 to 10
COc1cc2ncnc(-c3ccc(N)c(F)c3)c2cc1OC [P-0276, 4-(6,7-dimethoxyquinazolin-4-yl)-2-fluoro-aniline]	1 to 10
COc1cc2ncnc(-c3ccc(S(=O)(=O)NC4CC4)cc3)c2cc1OC [P-0277, N-cyclopropyl-4-(6,7-dimethoxyquinazolin-4-yl)benzenesulfonamide]	10 to 200
COc1cc2ncnc(-c3ccc(S(N)(=O)=O)cc3)c2cc1OC [P-0278, 4-(6,7-dimethoxyquinazolin-4-yl)benzenesulfonamide]	10 to 200
COc1cc2ncnc(-c3cccc(NS(=O)(=O)C4CC4)c3)c2cc1OC [P-0279, N-[3-(6,7-dimethoxyquinazolin-4-yl)phenyl]cyclopropanesulfonamide]	10 to 200
COc1cc2ncnc(-c3ccc(NS(=O)(=O)C4CC4)cc3)c2cc1OC [P-0280, N-[4-(6,7-dimethoxyquinazolin-4-yl)phenyl]cyclopropanesulfonamide]	10 to 200
O=S(=O)(Nc1ccc(-c2ncnc3[nH]c(C(F)F)cc23)c(F)c1)c1ccc(Cl)cc1 [P-0310, 4-chloro-N-[4-[6-(difluoromethyl)-7H-pyrrolo[2,3-d]pyrimidin-4-yl]-3-fluoro-phenyl]benzenesulfonamide]	1 to 10
Cc1cc2c(-c3ccc(NS(=O)(=O)c4ccccc4F)c(F)c3)ncnc2[nH]1 [P-0348, 2-fluoro-N-[2-fluoro-4-(6-methyl-7H-pyrrolo[2,3-d]pyrimidin-4-yl)phenyl]benzenesulfonamide]	0.0001 to 1
CS(=O)(=O)Nc1cc(F)c(-c2ncnc3[nH]c(-c4ccc(F)cc4)cc23)cc1F [P-0356, N-[2,5-difluoro-4-[6-(4-fluorophenyl)-7H-pyrrolo[2,3-d]pyrimidin-4-yl]phenyl]methanesulfonamide]	0.0001 to 1

SMILES	IC50 [µM]
Fc1ccc(-c2cc3c(-c4cccnc4C(F)(F)F)ncnc3[nH]2)cc1 [P-0374, 6-(4-fluorophenyl)-4-[2-(trifluoromethyl)-3-pyridyl]-7H-pyrrolo[2,3-d]pyrimidine]	10 to 200
Cc1cc2c(-c3ccc(NS(=O)(=O)C4CC4)cc3)ncnc2[nH]1 [P-0377, N-[4-(6-methyl-7H-pyrrolo[2,3-d]pyrimidin-4-yl)phenyl]cyclopropanesulfonamide]	10 to 200
CS(=O)(=O)c1ccc(-c2ncnc3[nH]c(-c4ccc(F)cc4)cc23)cc1 [P-0391, 6-(4-fluorophenyl)-4-(4-methylsulfonylphenyl)-7H-pyrrolo[2,3-d]pyrimidine]	1 to 10
Fc1ccc(-c2cc3c(-c4ccncc4)ncnc3[nH]2)cc1 [P-0392, 6-(4-fluorophenyl)-4-(4-pyridyl)-7H-pyrrolo[2,3-d]pyrimidine]	0.0001 to 1
Fc1ccc(-c2cc3c(-c4ccc(F)cc4)ncnc3[nH]2)cc1 [P-0395, 4,6-bis(4-fluorophenyl)-7H-pyrrolo[2,3-d]pyrimidine]	0.0001 to 1
CCCCNS(=O)(=O)c1ccc(-c2ncnc3[nH]c(-c4ccc(F)cc4)cc23)cc1 [P-0421, N-butyl-4-[6-(4-fluorophenyl)-7H-pyrrolo[2,3-d]pyrimidin-4-yl]benzenesulfonamide]	10 to 200
Cc1ccc(-c2cc3c(N4CCC(NS(=O)(=O)c5ccc(OC(F)(F)F)cc5)CC4)ncnc3[nH]2)cn1 [P-0459, N-[1-[6-(6-methyl-3-pyridyl)-7H-pyrrolo[2,3-d]pyrimidin-4-yl]-4-piperidyl]-4-(trifluoromethoxy)benzenesulfonamide]	10 to 200
N#Cc1ccc(-c2cc3c(N4CCC(NS(=O)(=O)c5ccc(OC(F)(F)F)cc5)CC4)ncnc3[nH]2)cc1 [P-0464, N-[1-[6-(4-cyanophenyl)-7H-pyrrolo[2,3-d]pyrimidin-4-yl]-4-piperidyl]-4-(trifluoromethoxy)benzenesulfonamide]	10 to 200
CS(=O)(=O)NC1CCN(c2ncnc3[nH]c(C#CC4CC4)cc23)CC1 [P-0472, N-[1-[6-(2-cyclopropylethynyl)-7H-pyrrolo[2,3-d]pyrimidin-4-yl]-4-piperidyl]methanesulfonamide]	10 to 200
O=C1CCCN1c1ccc(S(=O)(=O)NC2CCN(c3ncnc4[nH]c(-c5ccc(Cl)cc5)cc34)CC2)cc1 [P-0473, N-[1-[6-(4-chlorophenyl)-7H-pyrrolo[2,3-d]pyrimidin-4-yl]-4-piperidyl]-4-(2-oxopyrrolidin-1-yl)benzenesulfonamide]	10 to 200
CN(C)c1ccc(NC(=O)NC2CCN(c3ncnc4[nH]ccc34)CC2)cc1 [P-0506, 1-(4-dimethylaminophenyl)-3-[1-(7H-pyrrolo[2,3-d]pyrimidin-4-yl)-4-piperidyl]urea]	10 to 200
O=C(Nc1ccc(Cl)cc1)NC1CCN(c2ncnc3[nH]ccc23)CC1 [P-0519, 1-(4-chlorophenyl)-3-[1-(7H-pyrrolo[2,3-d]pyrimidin-4-yl)-4-piperidyl]urea]	10 to 200
O=C(NC(=O)c1ccccc1)NC1CCN(c2ncnc3[nH]ccc23)CC1 [P-0522, N-[[1-(7H-pyrrolo[2,3-d]pyrimidin-4-yl)-4-piperidyl]carbamoyl]benzamide]	10 to 200
O=C(NC1CCCC1)NC1CCN(c2ncnc3[nH]ccc23)CC1 [P-0526, 1-cyclopentyl-3-[1-(7H-pyrrolo[2,3-d]pyrimidin-4-yl)-4-piperidyl]urea]	10 to 200
CCCC(=O)NC1CCN(c2ncnc3[nH]ccc23)CC1 [P-0527, N-[1-(7H-pyrrolo[2,3-d]pyrimidin-4-yl)-4-piperidyl]butanamide]	10 to 200
O=C(NC1CCN(c2ncnc3[nH]ccc23)CC1)C1CCCCC1 [P-0528, N-[1-(7H-pyrrolo[2,3-d]pyrimidin-4-yl)-4-piperidyl]cyclohexanecarboxamide]	10 to 200

Reference: patent US10227357B2, “Compounds and methods for kinase modulation, and indications therefor” (Plexxikon Inc., priority 2012, dated 2019)
